According to patent US9469650B2, “Melampomagnolide B derivatives” (BOARD OF TRUSTEES OF THE UNIVERSITY OF ARKANSAS, priority 2013, dated 2016):

Legend:
SW-620 = assay: panel of 60 human tumor cell lines, growth inhibition (Colon Cancer); conditions: SW-620; Log10 Concentration −8.0
OVCAR-3 = assay: panel of 60 human tumor cell lines, growth inhibition (Ovarian Cancer); conditions: OVCAR-3
MOLT-4 = assay: panel of 60 human tumor cell lines, growth inhibition (Leukemia); conditions: MOLT-4
CAKI-1 = assay: panel of 60 human tumor cell lines, growth inhibition (Renal Cancer); conditions: CAKI-1
COLO 205 = assay: panel of 60 human tumor cell lines, growth inhibition (Colon Cancer); conditions: COLO 205
HT29 = assay: as above; conditions: HT29
UACC-257 = assay: panel of 60 human tumor cell lines, growth inhibition (Melanoma); conditions: UACC-257
MDA-MB-468 = assay: panel of 60 human tumor cell lines, growth inhibition (Breast Cancer); conditions: MDA-MB-468
SR = assay: panel of 60 human tumor cell lines, growth inhibition (Leukemia)
LOX IMVI = assay: panel of 60 human tumor cell lines, growth inhibition (Melanoma)

SMILES: C=C1C(=O)O[C@H]2[C@H]1CC/C(COC(=O)N1CCN(C)CC1)=C\CC[C@@]1(C)O[C@@H]21 [JVM 2-44]
- Percent Growth (SW-620): 98%
- GI50 (OVCAR-3): 3.86 µM
- TGI (OVCAR-3): 1.59E−5
- Mean Optical Densities (OVCAR-3; Log10 Concentration −4.0): 0.031
- Percent Growth (OVCAR-3; Log10 Concentration −4.0): −94%
- Mean Optical Densities (OVCAR-3; Log10 Concentration −5.0): 0.743
- Percent Growth (OVCAR-3; Log10 Concentration −5.0): 24%
- Mean Optical Densities (OVCAR-3; Log10 Concentration −6.0): 1.396
- Percent Growth (OVCAR-3; Log10 Concentration −6.0): 87%
- Mean Optical Densities (OVCAR-3; Log10 Concentration −7.0): 1.594
- Percent Growth (OVCAR-3; Log10 Concentration −7.0): 107%
- Mean Optical Densities (OVCAR-3; Log10 Concentration −8.0): 1.551
- Percent Growth (OVCAR-3; Log10 Concentration −8.0): 102%
- GI50 (MOLT-4): 5.49 µM
- TGI (MOLT-4): 3.43E−5
- Mean Optical Densities (MOLT-4; Log10 Concentration −4.0): 0.453
- Percent Growth (MOLT-4; Log10 Concentration −4.0): −30%
- Mean Optical Densities (MOLT-4; Log10 Concentration −5.0): 1.062
- Percent Growth (MOLT-4; Log10 Concentration −5.0): 35%
- Mean Optical Densities (MOLT-4; Log10 Concentration −6.0): 1.734
- Percent Growth (MOLT-4; Log10 Concentration −6.0): 92%
- Mean Optical Densities (MOLT-4; Log10 Concentration −7.0): 1.794
- Percent Growth (MOLT-4; Log10 Concentration −7.0): 98%
- Mean Optical Densities (MOLT-4; Log10 Concentration −8.0): 1.889
- Percent Growth (MOLT-4; Log10 Concentration −8.0): 106%
- GI50 (CAKI-1): 4 µM
- TGI (CAKI-1): 1.67E−5
- Mean Optical Densities (CAKI-1; Log10 Concentration −4.0): 0.032
- Percent Growth (CAKI-1; Log10 Concentration −4.0): −95%
- Mean Optical Densities (CAKI-1; Log10 Concentration −5.0): 1.287
- Percent Growth (CAKI-1; Log10 Concentration −5.0): 27%
- Mean Optical Densities (CAKI-1; Log10 Concentration −6.0): 2.593
- Percent Growth (CAKI-1; Log10 Concentration −6.0): 84%
- Mean Optical Densities (CAKI-1; Log10 Concentration −7.0): 2.649
- Percent Growth (CAKI-1; Log10 Concentration −7.0): 87%
- Mean Optical Densities (CAKI-1; Log10 Concentration −8.0): 2.814
- Percent Growth (CAKI-1; Log10 Concentration −8.0): 94%
- GI50 (COLO 205): 4.44 µM
- TGI (COLO 205): 1.76E−5
- Mean Optical Densities (COLO 205; Log10 Concentration −4.0): 0.159
- Percent Growth (COLO 205; Log10 Concentration −4.0): −67%
- Mean Optical Densities (COLO 205; Log10 Concentration −5.0): 0.767
- Percent Growth (COLO 205; Log10 Concentration −5.0): 22%
- Mean Optical Densities (COLO 205; Log10 Concentration −6.0): 1.790
- Percent Growth (COLO 205; Log10 Concentration −6.0): 101%
- Mean Optical Densities (COLO 205; Log10 Concentration −7.0): 1.715
- Percent Growth (COLO 205; Log10 Concentration −7.0): 95%
- Mean Optical Densities (COLO 205; Log10 Concentration −8.0): 1.784
- Percent Growth (COLO 205; Log10 Concentration −8.0): 100%
- GI50 (HT29): 5.54 µM
- TGI (HT29): 1.95E−5
- Mean Optical Densities (HT29; Log10 Concentration −4.0): 0.873
- Percent Growth (HT29; Log10 Concentration −4.0): −70%
- Mean Optical Densities (HT29; Log10 Concentration −5.0): 0.502
- Percent Growth (HT29; Log10 Concentration −5.0): 28%
- Mean Optical Densities (HT29; Log10 Concentration −6.0): 1.268
- Percent Growth (HT29; Log10 Concentration −6.0): 112%
- Mean Optical Densities (HT29; Log10 Concentration −7.0): 1.248
- Percent Growth (HT29; Log10 Concentration −7.0): 110%
- Mean Optical Densities (HT29; Log10 Concentration −8.0): 1.216
- Percent Growth (HT29; Log10 Concentration −8.0): 107%
- GI50 (UACC-257): 9.93 µM
- TGI (UACC-257): 2.32E−5
- Mean Optical Densities (UACC-257; Log10 Concentration −4.0): 0.150
- Percent Growth (UACC-257; Log10 Concentration −4.0): −86%
- Mean Optical Densities (UACC-257; Log10 Concentration −5.0): 1.662
- Percent Growth (UACC-257; Log10 Concentration −5.0): 50%
- Mean Optical Densities (UACC-257; Log10 Concentration −6.0): 2.046
- Percent Growth (UACC-257; Log10 Concentration −6.0): 84%
- Mean Optical Densities (UACC-257; Log10 Concentration −7.0): 2.135
- Percent Growth (UACC-257; Log10 Concentration −7.0): 92%
- Mean Optical Densities (UACC-257; Log10 Concentration −8.0): 2.160
- Percent Growth (UACC-257; Log10 Concentration −8.0): 94%
- GI50 (MDA-MB-468): 1.87 µM
- TGI (MDA-MB-468): 8.56E−6
- Mean Optical Densities (MDA-MB-468; Log10 Concentration −4.0): 0.228
- Percent Growth (MDA-MB-468; Log10 Concentration −4.0): −71%
- Mean Optical Densities (MDA-MB-468; Log10 Concentration −5.0): 0.737
- Percent Growth (MDA-MB-468; Log10 Concentration −5.0): −5%
- Mean Optical Densities (MDA-MB-468; Log10 Concentration −6.0): 1.156
- Percent Growth (MDA-MB-468; Log10 Concentration −6.0): 66%
- Mean Optical Densities (MDA-MB-468; Log10 Concentration −7.0): 1.377
- Percent Growth (MDA-MB-468; Log10 Concentration −7.0): 104%
- Mean Optical Densities (MDA-MB-468; Log10 Concentration −8.0): 1.328
- Percent Growth (MDA-MB-468; Log10 Concentration −8.0): 95%
- GI50 (SR): 2.81 µM
- TGI (SR): 3.33E−5
- Mean Optical Densities (SR; Log10 Concentration −4.0): 0.332
- Percent Growth (SR; Log10 Concentration −4.0): −14%
- Mean Optical Densities (SR; Log10 Concentration −5.0): 0.534
- Percent Growth (SR; Log10 Concentration −5.0): 16%
- Mean Optical Densities (SR; Log10 Concentration −6.0): 1.105
- Percent Growth (SR; Log10 Concentration −6.0): 78%
- Mean Optical Densities (SR; Log10 Concentration −7.0): 1.224
- Percent Growth (SR; Log10 Concentration −7.0): 91%
- Mean Optical Densities (SR; Log10 Concentration −8.0): 1.227
- Percent Growth (SR; Log10 Concentration −8.0): 91%
- GI50 (LOX IMVI): 12.4 µM
- TGI (LOX IMVI): 2.63E−5
- Mean Optical Densities (LOX IMVI; Log10 Concentration −4.0): 0.051
- Percent Growth (LOX IMVI; Log10 Concentration −4.0): −89%
- Mean Optical Densities (LOX IMVI; Log10 Concentration −5.0): 1.794
- Percent Growth (LOX IMVI; Log10 Concentration −5.0): 64%
- Percent Growth (LOX IMVI; Log10 Concentration −6.0): 96%
- Mean Optical Densities (LOX IMVI; Log10 Concentration −7.0): 2.419
- Percent Growth (LOX IMVI; Log10 Concentration −7.0): 94%
- Mean Optical Densities (LOX IMVI; Log10 Concentration −8.0): 2.424
- Percent Growth (LOX IMVI; Log10 Concentration −8.0): 94%
